ChEMBL document CHEMBL4184146, “Interrogating the Roles of Post-Translational Modifications of Non-Histone Proteins” (J Med Chem, 2018)
pIC50: −log10 of the molar value.

Key:
[1] = target: T1, Geranylgeranyl transferase type I (Homo sapiens, UniProt P49354+P53609); assay: Inhibition of GGTase1 isolated from human Burkitt's lymphoma cells assessed as decrease in transfer of [3H]H]geranylgeranyl from [3H]geranylgeranyl PPi to H-Ras-CVLL
[2] = target: T2, Protein farnesyltransferase (Homo sapiens, UniProt P49354+P49356); assay: Inhibition of FTase isolated from human Burkitt's lymphoma cells assessed as decrease in transfer of [3H]farnesyl from [3H]farnesyl PPi to H-Ras-CVLS
[3] = target: T2, Protein farnesyltransferase; assay: Inhibition of FTase (unknown origin) expressed in mouse NIH-3T3 cells transfected with human H-Ras assessed as decrease in farnesylation of H-Ras after 24 hrs by chemoluminescence assay; assay type: cell-based
[4] = target: T1, Geranylgeranyl transferase type I; assay: Inhibition of GGTase1 (unknown origin) expressed in mouse NIH-3T3 cells transfected with k-Ras4B assessed as decrease in geranylgeranylation of k-Ras4B after 24 hrs by chemoluminescence assay; assay type: cell-based
[5] = target: T1, Geranylgeranyl transferase type I; assay: Inhibition of GGTase1 (unknown origin); assay type: protein-complex assay
[6] = target: T2, Protein farnesyltransferase; assay: Inhibition of FTase (unknown origin); assay type: protein-complex assay
[7] = target: T2, Protein farnesyltransferase; assay: Inhibition of FTase (unknown origin) using H-ras as substrate; assay type: protein-complex assay
[8] = target: geranylgeranyltransferase type-I (Rattus norvegicus, UniProt P53610+Q04631); assay: Inhibition of rat brain GGTase1 assessed as decrease in transfer of [3H]H]geranylgeranyl from [3H]geranylgeranyl PPi to H-Ras-CVLL after 30 mins by liquid scintillation counting method
[9] = target: T3, Glycylpeptide N-tetradecanoyltransferase (Neosartorya fumigata (strain ATCC MYA-4609 / Af293 / CBS 101355 / FGSCA1100) (Aspergillus fumigatus), UniProt Q9UVX3); assay: Inhibition of recombinant Aspergillus fumigatus NMT (Gln86 to Leu492 residues) expressed in Escherichia coli BL21(DE3) pLysS cells using [3H]-myristoyl coenzyme A/CAP5.5 as substrate after 20 mins by scintillation proximity assay
T3 sequence (Q9UVX3 whole entry): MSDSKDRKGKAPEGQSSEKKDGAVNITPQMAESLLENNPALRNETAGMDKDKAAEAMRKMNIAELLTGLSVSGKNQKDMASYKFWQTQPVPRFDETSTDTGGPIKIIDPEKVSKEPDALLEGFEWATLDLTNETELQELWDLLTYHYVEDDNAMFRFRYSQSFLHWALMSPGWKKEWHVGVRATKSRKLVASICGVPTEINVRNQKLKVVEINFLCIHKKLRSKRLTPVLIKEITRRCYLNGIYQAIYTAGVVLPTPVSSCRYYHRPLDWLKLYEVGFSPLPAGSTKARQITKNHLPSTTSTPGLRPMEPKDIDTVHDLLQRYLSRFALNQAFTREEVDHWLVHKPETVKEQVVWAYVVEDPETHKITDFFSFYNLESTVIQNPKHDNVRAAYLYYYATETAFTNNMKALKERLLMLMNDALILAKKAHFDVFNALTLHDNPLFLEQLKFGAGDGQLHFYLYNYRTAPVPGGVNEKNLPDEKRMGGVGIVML

With CC(C)C[C@H](NC(=O)c1ccc(NC[C@@H](N)CS)cc1-c1cccc2ccccc12)C(=O)O the pIC50 [1] was 7.30 and the pIC50 [2] was 6.70.

COC(=O)[C@H](CC(C)C)NC(=O)c1ccc(NC[C@@H](N)CS)cc1-c1ccccc1 was tested, and the pIC50 [3] was < 4.52 and the pIC50 [4] was 5.70.

In the case of COC(=O)[C@H](CCSC)NC(=O)CN1C[C@H](N(C)C(=O)[C@H](N)CS)N=C(c2ccccc2)c2ccccc21, the pIC50 [5] was < 6.00 and the pIC50 [6] was 7.39.

O=C(c1cn(Cc2cncn2Cc2ccc(Br)cc2)cc1-c1cccc2ccccc12)N1CCOCC1 showed a pIC50 [7] of 9.10.

With NC(=O)N1CCC(CC(=O)N2CCC([C@H]3c4ncc(Br)cc4CCc4cc(Cl)cc(Br)c43)CC2)CC1 [LONAFARNIB] the pIC50 [8] was < 6.00.

Cc1c(NS(=O)(=O)c2c(Cl)cc(-c3ccnc(N4CCNCC4)c3)cc2Cl)c(CC(C)C)nn1C [ZELENIRSTAT] was tested, and the pIC50 [9] was 7.92.
